In ChEMBL document CHEMBL2380257, “Discovery of a small-molecule inhibitor and cellular probe of Keap1-Nrf2 protein-protein interaction” (Bioorg Med Chem Lett, 2013) one finds Stability and solubility data, which are given here for one compound.

What all share (type): physicochemical
The nature of data set [1]: Stability in phosphate buffer after 24 hrs.
A short description of data set [2]: Metabolic stability of the compound assessed as thiol group addition after 48 hrs in presence of glutathione.
Data set [3] can be described thus: Solubility of the compound in phosphate buffer.
Data set [4] is described as follows: Metabolic stability of the compound assessed as thiol group decomposition after 48 hrs in presence of glutathione.

As usually defined, the solubility is the concentration that dissolves in the medium under given conditions. Higher therefore signals much dissolved substance.

With `O=C(O)[C@H]1CCCC[C@H]1C(=O)N1CCc2ccccc2[C@H]1CN1C(=O)c2ccccc2C1=O`, the Stability entry in data set [1], in data set [2] and in data set [4] was “Stable” each time. In addition, the solubility in data set [3] was greater than 100 µM.
